Measured values as given in patent publication US10265277B2, “Composition of Olivetol and method of use to reduce or inhibit the effects of tetrahydrocannabinol in the human body” (Undoo, LLC, priority 2015, dated 2019).

Test system: cannabis high (psychotropic effects of THC)
Assay: real-life, non-clinical trials by volunteers: oral Olivetol softgel taken at peak of cannabis high, self-reported effects
Type: in vivo, human
Details: consumed before or after THC; general statement of the inventors
Experimental: A number of real-life, non-clinical trials have been performed by volunteers, to test the effects of the consumption of embodiments of the present invention, the conditions and results of which are described as follows. All tests were performed in “real life,” rather than clinical conditions. Various methods of consumption of cannabis were used, such as consumption of edibles, inhalation of cannabis smoke, or inhalation of vapor, depending upon the volunteer's preference. Some subjects reported their pre-consumption mood, pain level, etc., as well as their level of experience with consumption of cannabis. After sufficient exposure to cannabis, each subject indicated when their euphoria or “high” had reached a high level or a peak. Then, the subject took one or more oral doses of an embodiment of the present invention, containing 30 mg of Olivetol combined with edible oil in a “softgel” pill. A timer was started and the subject then reported when they felt an awareness of a decrease or reduction in their euphoria or other cannabis effects, as well as their subjective feelings, mood, pain level or other observations, until they self-reported that their cannabis effects were concluded. […]

SMILES: CCCCCc1cc(O)cc(O)c1 [Olivetol, 5-pentylresorcinol]
- effect of Olivetol consumption on psychotropic effects of THC: significantly reduce the psychotropic effects of THC ingestion
